Results taken from publication PMC8007111, “Novel Potent Muscarinic Receptor Antagonists: Investigation on the Nature of Lipophilic Substituents in the 5- and/or 6-Positions of the 1,4-Dioxane Nucleus” (Journal of Medicinal Chemistry, 2020).

How the values were obtained:
[1] = tested on: MSCs from mouse bone marrow; test: Carbachol-induced MSC viability (MTS assay); assay type: cell-based; settings: pre-incubation 1 h, then carbachol 10^–10 M for 24 h
Experimental: It is well established that bone marrow MSC behavior is influenced by a variety of signaling systems. In context, cholinergic intramural stimuli and, in particular, muscarinic signals orchestrate MSCs viability and commitment.[11],[12] Considering also the pluripotent MSC nature and their contribution to bone, blood, and systemic homeostasis,[53] viability studies on MSCs were performed to determine the functional profile of 3b, the most interesting compound in this series. […] Successively, the efficacy of 3b in contrasting cell viability induced by the well-known mAChR agonist carbachol was evaluated. […] Further research on the intracellular mechanistic outcomes of 3b on MSCs remains mandatory.
The in vitro studies were performed by using bone marrow MSCs as a model. Male BALB/c mice (Harlan Italy SrL, Milano, Italy) (8 weeks old; body weight ∼24.5 g; n = 4) were kept in a laminar-flow cage in a standardized environmental condition. Food (Harlan, Italy), and water was supplied ad libitum. Mice were sacrificed by CO2 narcosis and cervical dislocation in accordance with the recommendations of the Italian Ethical Committee and under the supervision of authorized investigators. Long bones (femurs and tibiae) were dissected and cleaned from skin, muscle, and connective tissues as much as possible. Bones were placed in a culture dish containing sterile PBS. Then, the bone cavity was flushed in DMEM with a syringe in order to collect the bone marrow cells into a 50 mL sterile tube. […] After 2 weeks of initiating culture, cells were washed with PBS, detached by trypsinization, counted, and plated at the density of 5,000 cells/well in 96 culture plates (Costar Corp., Milano, Italy) in DMEM containing 10% HIFCS, penicillin, and streptomycin.
MSCs were treated with compound 3b (from 10^–4 to 10^–10 M) for 24 h. […] At the end of each procedure, the MSCs viability was measured by MTS assay. […] The quantity of the formazan product was directly proportional to the number of living cells in culture. The colored formazan was measured by reading the absorbance at 490 nm using a […] plate reader.

[2] = biological target: T1, hM4 mAChR (Homo sapiens, UniProt P08173); test: [3H]NMS inhibition radioligand binding, hM4 in CHO-K1 cell membranes; settings: [3H]NMS, CHO-K1 cell membranes; mean ± S.E.M.
T1 construct: expressed in transfected cells; host or cells: CHO-K1 (membrane preparation)
T1 sequence (P08173 1-479): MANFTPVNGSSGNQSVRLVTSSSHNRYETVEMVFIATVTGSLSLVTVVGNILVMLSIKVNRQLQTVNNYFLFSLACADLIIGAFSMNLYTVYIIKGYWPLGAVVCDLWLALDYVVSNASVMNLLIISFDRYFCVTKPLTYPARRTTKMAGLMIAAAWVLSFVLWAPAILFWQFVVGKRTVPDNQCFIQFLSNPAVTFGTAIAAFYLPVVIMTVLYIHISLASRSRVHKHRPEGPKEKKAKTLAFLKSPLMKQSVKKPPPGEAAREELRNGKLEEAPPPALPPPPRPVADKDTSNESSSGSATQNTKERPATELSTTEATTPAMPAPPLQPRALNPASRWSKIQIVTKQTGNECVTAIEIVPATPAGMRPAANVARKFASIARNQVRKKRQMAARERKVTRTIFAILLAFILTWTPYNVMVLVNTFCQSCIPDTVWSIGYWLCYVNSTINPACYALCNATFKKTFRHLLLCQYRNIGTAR

C[N+](C)(C)C[C@@H]1COC[C@](c2ccccc2)(C2CCCCC2)O1.[I-] (relative stereo) [3b, 1-((2R*,6R*)-6-Cyclohexyl-6-phenyl-1,4-dioxan-2-yl)-N,N,N-trimethylmethanaminium Iodide]
effect on carbachol-induced MSC viability [1]: able to contrast the increase of carbachol-induced MSC viability | pKi hM4 [2]: 9.03 ± 0.16
